Each block holds one molecule with its values, some of them ahead of it.
What was measured:
Assay type in all cases: biochemical
ADAM 17 [1] = biological target: ADAM 17 (Homo sapiens, UniProt P01375); experiment: Fluorescence polarization assay of cleavage of N-terminal FITC labeled pro-TNF-α by Adam 17
Method: (§1) Cleavage of N-terminal FITC labeled pro-TNF-α was performed by a fluorescence polarization assay. The assay was performed with a SpectraMax fluorescence plate reader in 96-well format. In a typical assay, 1 μM substrate protein was preincubated at 37° C. for 20 minutes. The reaction was initiated by addition of Adam 17 to the substrate solution. The final concentration of Adam 17 was 48 nM. The total reaction volume was […]. The reaction buffer was 50 mM Tris-HCl, pH 7.5, 2.5 μM ZnCl2, 0.005% Brij-35. In inhibition assays, the inhibitor was preincubated with its target protein for 30 minutes before reaction was initiated.
(§2) The concentration of product was calculated according to equation (1): [P]=(F[S]−Fs[S])/(Fp−Fs); where [P] is the concentration of product, F is the experimental recorded fluorescence polarization value, [S] is the total concentration of substrate and Fs and Fp are fluorescence polarization values of substrate and product, respectively. Fp is determined from a synthetic peptide with an identical sequence to the N-terminal fragment of the cleavage products.
(§3) To initiate the cleavage reaction, 1 ul ADAM 17 (0.1 mg/ml) stock solution may be added to 100 ul FITC-[pro-TNF-α] in 20 mM Tris-HCL, PH 8.5. The final concentration of FITC-[pro-TNF-α] is about 1 uM.

ADAM 17 [2] = biological target: ADAM 17 (Homo sapiens, UniProt P78536); experiment: Cleavage of peptide substrate by Adam 17 (HPLC); details: HPLC results
Chain of ADAM 17 (Homo sapiens, UniProt P78536) (P78536 215-824): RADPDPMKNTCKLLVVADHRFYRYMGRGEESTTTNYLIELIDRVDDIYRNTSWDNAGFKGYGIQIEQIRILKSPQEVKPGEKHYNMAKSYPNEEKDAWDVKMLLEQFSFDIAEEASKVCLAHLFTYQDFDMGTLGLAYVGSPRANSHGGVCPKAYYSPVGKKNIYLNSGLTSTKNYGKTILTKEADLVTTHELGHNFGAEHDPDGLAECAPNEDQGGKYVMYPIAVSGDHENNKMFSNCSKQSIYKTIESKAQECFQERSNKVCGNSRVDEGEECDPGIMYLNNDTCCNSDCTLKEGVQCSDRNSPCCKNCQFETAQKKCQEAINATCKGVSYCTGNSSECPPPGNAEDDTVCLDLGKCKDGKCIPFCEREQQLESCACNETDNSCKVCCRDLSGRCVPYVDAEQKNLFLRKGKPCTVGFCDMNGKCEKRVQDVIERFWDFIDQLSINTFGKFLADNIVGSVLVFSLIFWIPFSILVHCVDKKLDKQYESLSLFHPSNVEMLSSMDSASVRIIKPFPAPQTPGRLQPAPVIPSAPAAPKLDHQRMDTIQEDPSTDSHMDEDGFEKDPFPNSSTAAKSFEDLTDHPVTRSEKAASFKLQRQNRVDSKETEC
Method: Cleavage of peptide substrates: Two peptide substrates were used in this study. PS1 is Mca-PLAQAV-Dpa-RSSSR-NH2 (22), a fluorescence resonance energy transfer based substrate, the activity was measured by fluorescence intensity change upon cleavage. PS2 may be the non-fluorescence version of PS1. For PS1, in a typical assay, 10 μM substrate was preincubated at 37° C. for 20 minutes. The reaction was initiated by addition of Adam 17 to the substrate solution at the final concentration of 16 nM. The total reaction volume may be 100 μl. The reaction buffer may be 50 mM Tris-HCl, pH 9.0, 2.5 μM ZnCl2, 0.005% Brij-35. In inhibition assays, inhibitor was preincubated with peptide substrate for 30 minutes. For PS2, reaction conditions were identical to PS1.
Referring to FIGS. 13 and 14, TNF-α Inhibitor is a small molecule that blocks interaction of TNF-α with its receptor by binding to TNF-α. This compound may affect the activity of Adam 17 to convert pro-TNF-α to TNF-α. Referring to FIG. 13, it is shown that at a concentration of about 200 μM, TNF-α inhibitor reduces the reaction rate by about 40%, which is validated by the electrophoresis assay results shown in FIG. 14. […] Based on the established direct binding between the compound and TNFα, it is believed that the inhibition effect is caused by the interaction of the compound to pro-TNFα.

ADAM 17 [3] = experiment: Fluorescence polarization assay of cleavage of N-terminal FITC labeled pro-TNF-α by Adam 17; details: inhibitor at final concentration 10 uM; FIG. 3 Trace B
Method: as §1, §2, §3

BACE = biological target: T1, BACE (Homo sapiens, UniProt P56817); experiment: Fluorescence polarization assay of cleavage of APP365-699-[5-TAMRA] by BACE; details: inhibitor included in the cleavage reaction; FIG. 10 Trace B
T1 construct: made in house; host or cells: E. coli
T1 sequence (P56817 46-501): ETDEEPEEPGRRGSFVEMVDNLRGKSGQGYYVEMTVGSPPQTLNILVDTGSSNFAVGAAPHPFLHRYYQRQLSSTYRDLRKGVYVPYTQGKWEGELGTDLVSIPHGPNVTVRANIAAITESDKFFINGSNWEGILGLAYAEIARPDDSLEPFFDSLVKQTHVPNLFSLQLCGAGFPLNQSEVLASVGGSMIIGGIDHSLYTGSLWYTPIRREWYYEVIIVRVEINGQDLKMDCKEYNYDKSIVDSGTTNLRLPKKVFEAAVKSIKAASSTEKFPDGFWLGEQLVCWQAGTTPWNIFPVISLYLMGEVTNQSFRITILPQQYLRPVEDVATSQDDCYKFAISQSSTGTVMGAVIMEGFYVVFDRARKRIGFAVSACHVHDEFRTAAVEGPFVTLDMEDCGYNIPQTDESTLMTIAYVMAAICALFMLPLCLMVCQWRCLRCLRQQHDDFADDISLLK
Excerpt: Referring to FIGS. 9-11, in this example Beta-secretase (BACE) is one of the two proteases that cleave amyloid precursor protein (APP) to produce amyloid peptide 1-42. Human APP is a 733 residue protein. Full length of APP is consisted of several domains. BACE cleaves APP between residue 671 and 672. In this example, a fluorescence dye is specifically conjugated to the C-terminal end of APP365-699 that contains two independent folded domains. Gene encoding APP365-699 is fused to the N-terminal end of intein. After MESNA mediated self cleavage between APP365-699 and intein, a thioester group, is added to the C-terminal end of APP365-699. A fluorescence dye conjugated small peptide, CysGlySerLys-[5-TAMRA], is then ligated to the C-terminal end of APP365-699 to produce fluorescent dye labeled APP365-699:
As a result, fluorescence polarization of 5-TAMRA reduces. […] It proves that APP365-699-[5-TAMRA] may be used as a substrate for BACE activity assay by recording the fluorescence polarization. […] Thus, APP365-699-[5-TAMRA] may be used as a substrate for BACE activity assay by recording the fluorescence polarization and the assay may be used to identify its inhibitors.

Renin = biological target: T2, Renin (Homo sapiens, UniProt P00797); experiment: Fluorescence polarization assay of cleavage of FITC-angiotensinogen by Renin; details: inhibitor at final concentration 10 uM
T2 sequence (P00797 67-406): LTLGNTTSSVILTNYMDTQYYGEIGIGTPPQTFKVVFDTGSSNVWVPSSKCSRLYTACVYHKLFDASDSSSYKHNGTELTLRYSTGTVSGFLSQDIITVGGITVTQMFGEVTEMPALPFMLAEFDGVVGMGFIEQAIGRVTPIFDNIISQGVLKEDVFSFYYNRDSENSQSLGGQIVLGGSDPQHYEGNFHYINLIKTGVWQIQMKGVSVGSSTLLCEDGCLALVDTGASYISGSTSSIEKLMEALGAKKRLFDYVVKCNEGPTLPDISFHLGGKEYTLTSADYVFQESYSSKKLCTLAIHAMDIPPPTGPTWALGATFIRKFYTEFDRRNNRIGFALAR
Method: Cleavage of FITC-angiotensinogen by Renin produces two products: FITC-AAGCDRVYIHPFHL (FITC-angiotensin) and angiotensinogen protein. To initiate the cleavage reaction, 1 ul Renin (0.1 mg/ml) stock solution may be added to 100 ul FITC-angiotensinogen in 20 mM Tris-HCL, PH 8.5. The final concentration of FITC-angiotensingen may be about 1 uM. […] This confirms the specific cleavage of FITC-angiotensinogen by Renin.
An alternative strategy to label the full length angtensinogen is to delete 16 residues from the N-terminus of angtensinogen. This shorted angtensinogen has a Cys at its N-terminal end and is fused to sumo. Using the same protocol as described above, this fusion protein is expressed, purified and cleaved by Sumo protease to produce the N-terminal 16 residue deleted angtensinogen. Referring to FIG. 7, ligation of the N-terminal 16 residue deleted angtensinogen to the FITC-DRVYIHPFHLVIHNEST-thioester, a slightly different version of FITC-angiotensinogen is produced. […] Cleavage of this FITC-angiotensinogen by Renin may be measured by recording fluorescence polarization signal as a function of time, as shown in FIG. 8. […] This proves that the FITC-angiotensinogen may be used as a substrate for Renin activity assay by recording the fluorescence polarization and the assay may be used to identify its inhibitors.

Chain of ADAM 17 (Homo sapiens, UniProt P01375) (P01375 with tags, fused parts or gaps): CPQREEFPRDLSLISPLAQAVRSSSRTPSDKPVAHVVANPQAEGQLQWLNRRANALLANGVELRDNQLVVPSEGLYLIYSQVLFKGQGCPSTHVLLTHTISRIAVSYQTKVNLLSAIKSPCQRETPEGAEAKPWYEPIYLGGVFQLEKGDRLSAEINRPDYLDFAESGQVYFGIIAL

Molecule: Cc1cc2occ(CN(C)CCN(C)Cc3cn(-c4cccc(C(F)(F)F)c4)c4ccccc34)c(=O)c2cc1C [TNF-α inhibitor, 6,7-Dimethyl-3-((methyl-(2-(methyl-(1-(3-trifluoromethyl-phenyl)-1H-indol-3-ylmethyl)-amino)-ethyl)-amino)-methyl)-chromen-4-one]
cleavage rate of FITC-(pro-TNF-α) by ADAM 17 (ADAM 17 [1]; 200 uM compound pre-incubated with FITC-(pro-TNF-α) for 30 minutes): reduced
reduction of the reaction rate (conversion of pro-TNF-α to TNF-α by Adam 17) (ADAM 17 [1]; inhibitor at about 200 μM, FIG. 13): about 40%
cleavage activity of Adam 17 to the peptide substrate (ADAM 17 [2]): not affected

Molecule: CNC(=O)[C@H](Cc1c[nH]c2ccccc12)NC(=O)[C@@H](CC(=O)NO)CC(C)C [N-[(2R)-2-(Hydroxamidocarbonylmethyl)-4-methylpentanoyl]-L-tryptophan methylamide]
fluorescence polarization change during cleavage of FITC-[pro-TNF-α] by ADAM 17 (ADAM 17 [3]): little change

fluorescence polarization during cleavage of APP365-699-[5-TAMRA] by BACE (BACE): remains unchanged
Molecule: KTEEISEVN-Sta-VAEF

fluorescence polarization change during cleavage of FITC-angiotensinogen by Renin (Renin; FITC-angiotensinogen made from N-terminal 16 residue deleted angiotensinogen, FIG. 8 Trace B): little change
fluorescence polarization change during cleavage of FITC-angiotensinogen by Renin (Renin; full length FITC-angiotensinogen, FIG. 6 Trace B): little change
Molecule: RRPFH-Sta-IHK
